Test results taken from patent US20230060425A1, “FUSED BICYCLIC HETEROCYCLE DERIVATIVES AS PESTICIDES” (Bayer Aktiengesellschaft, priority 2019, published 2023).

How the values were obtained:
Type in all cases: in vivo
Phaedon cochleariae = Phaedon cochleariae spray test; details: foliar, 168 h, application rate 100 g/ha, Chinese cabbage leaf discs, after 7 days, read-out: efficacy
Summary of the method: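 Chinese cabbage leaf discs sprayed with compound formulated in acetone/DMF and emulsifier-containing water, then infested with mustard beetle larvae after drying. Efficacy read after 7 days as % larvae killed.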

Myzus persicae [1] = test: Myzus persicae spray test; details: foliar, 120 h, application rate 100 g/ha, Chinese cabbage leaf discs, after 5 days, read-out: efficacy
Summary of the method: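 Chinese cabbage leaf discs infested with all stages of Myzus persicae were sprayed with compound in acetone/DMF, diluted in water containing 1000 ppm emulsifier. Efficacy in % assessed after 5 days: 100% all aphids killed, 0% none killed.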

Myzus persicae [2] = test: Myzus persicae spray test (MYZUPE), comparative; details: 120 h, 5 dat, read-out: % Efficacy
Description: Myzus persicae—Spray Test (MYZUPE)
(§1) Solvent: • 78.0 parts by weight of acetone • 1.5 parts by weight of dimethylformamide
(§2) Emulsifier: alkylaryl polyglycol ether
(§3) To produce a suitable active compound preparation, 1 part by weight of active compound is dissolved using the stated parts by weight of solvent and made up with water containing an emulsifier concentration of 1000 ppm until the desired concentration is attained. To produce further test concentrations, the formulation is diluted with emulsifier-containing water.
Discs of Chinese cabbage leaves (Brassica pekinensis) infested by all stages of the green peach aphid (Myzus persicae) are sprayed with an active compound preparation of the desired concentration.
After the desired period of time, the efficacy in % is determined. 100% means that all the aphids have been killed; 0% means that no aphids have been killed.

Ctenocephalides felis = Ctenocephalides felis in vitro contact test with adult cat fleas; details: application rate 5 μg/cm^2 (=500 g/ha); after 48 h; fleas dead or moribund
Description: Ctenocephalides felis—In Vitro Contact Tests with Adult Cat Fleas
(§4) For the coating of the test tubes, 9 mg of active compound are first dissolved in 1 ml of acetone p.a. and then diluted to the desired concentration with acetone p.a. 250 μl of the solution are distributed homogeneously on the inner walls and the base of a 25 ml glass tube by turning and rocking on an orbital shaker (rocking rotation at 30 rpm for 2 h). With 900 ppm of active compound solution and internal surface area 44.7 cm^2, given homogeneous distribution, an area-based dose of 5 μg/cm^2 is achieved.
After the solvent has evaporated off, the tubes are populated with 5-10 adult cat fleas (Ctenocephalides felis), sealed with a perforated plastic lid and incubated in a horizontal position at room temperature and ambient humidity. After 48 h, efficacy is determined. To this end, the tubes are stood upright and the fleas are knocked to the base of the tube. Fleas which remain motionless at the base or move in an uncoordinated manner are considered to be dead or moribund.
100% efficacy means that all the fleas were dead or moribund. 0% efficacy means that no fleas were harmed.

Rhipicephalus sanguineus = Rhipicephalus sanguineus in vitro contact test with adult brown dog ticks; details: application rate 5 μg/cm^2; after 48 h; ticks dead or moribund
Description: Rhipicephalus sanguineus—In Vitro Contact Tests with Adult Brown Dog Ticks
as §4
After the solvent has evaporated off, the tubes are populated with 5-10 adult dog ticks (Rhipicephalus sanguineus), sealed with a perforated plastic lid and incubated in a horizontal position in the dark at room temperature and ambient humidity. After 48 h, efficacy is determined. To this end, the ticks are knocked to the base of the tube and incubated on a hotplate at 45-50° C. for not more than 5 min. Ticks which remain motionless on the base or move in such an uncoordinated manner that they are unable to deliberately avoid the heat by climbing upwards are considered to be dead or moribund.
An efficacy of 100% means that all the ticks were dead or moribund. 0% efficacy means that none of the ticks were harmed.

Spodoptera frugiperda = Spodoptera frugiperda spray test (SPODFR), comparative; details: 168 h, 0.8 g of ai/ha, 7 dat, read-out: % Efficacy
Description: Spodoptera frugiperda—Spray Test (SPODFR)
as §1, §2, §3
Leaf discs of maize (Zea mays) are sprayed with an active compound formulation of the desired concentration and, after drying, populated with caterpillars of the armyworm (Spodoptera frugiperda).
After the desired period of time, the efficacy in % is determined. 100% means that all the caterpillars have been killed; 0% means that no caterpillar has been killed.

CCS(=O)(=O)c1c(-c2nc3cc(C(F)(F)F)cnc3n2C)ncc2cc(Br)ccc12 [Example I-037, 7-Bromo-4-ethylsulfonyl-3-[3-methyl-6-(trifluoromethyl)imidazo[4,5-b]pyridin-2-yl]isoquinoline]
pest or weed control at 100 g/ha (Phaedon cochleariae): 100% | pest or weed control at 100 g/ha (Myzus persicae [1]): 100% | Emax at 4 g/ha (Myzus persicae [2]; 4 g of ai/ha): 70% | Emax at 20 g/ha (Myzus persicae [2]; 20 g of ai/ha): 90% | efficacy (Ctenocephalides felis): 100% | efficacy (Rhipicephalus sanguineus): 100% | Emax at 0.8 g/ha (Spodoptera frugiperda): 100%
